pEC50, pIC50: −log10 of the molar value. Where two headings read alike, the source gives them in different places.
Tests used:
[1] = molecular target: HCV NS3/4A protease genotype 3a (Hepatitis C virus genotype 3a, UniProt Q81495); assay: HCV NS3/4A protease time-resolved fluorescence (TRF) assay, Ki against genotype 3a; type: biochemical
Method: (§1) Measuring NS3/4A Inhibitory Activity (Ki) Against Genotype 1b, Against A156T Mutants and Against Genotype 3a
(§2) One assay for measuring inhibitory activity is HCV NS3 protease time-resolved fluorescence (TRF) assay as described below and in Mao et al., Anal. Biochem. 373:1-8, 2008 and International Patent Application Publication WO 2006/102087. A NS3 protease assay can be performed, for example, in a final volume of 20 μl assay buffer containing 50 mM HEPES, pH 7.5, 150 mM NaCl, 15% glycerol, 0.15% TRITON X-100, 10 mM DTT, and 0.1% PEG 8000. NS3 and NS4A protease is pre-incubated with various concentrations of inhibitors in DMSO for 30 min. The reaction is initiated by adding the TRF peptide substrate (final concentration 25 nM). NS3 mediated hydrolysis of the substrate was run for 2.5 hours at room temperature. Product fluorescence is detected using A Pherastar Plus plate reader (BMG) or Envision (Perkin Elmer Life and Analytical Sciences with excitation at 340 nm and emission at 615 nm using the appropriate delay time optimized for the europium fluorescence probe. Testing concentrations of different enzyme forms are selected to result in a signal to background ratio (S/B) of 10-30. IC50 values are derived using a standard four-parameter fit to the data. Ki values are derived from IC50 values using the following formula, IC50=Ki(1+[S]/KM), Eqn (1), where [S] is the concentration of substrate peptide in the reaction and KM is the Michaelis constant. See P. Gallinari et al., 38 BIOCHEM. 5620-32 (1999); P. Gallinari et al., 72 J. VIROL. 6758-69 (1998); M. Taliani et al., 240 ANAL. BIOCHEM. 60-67 (1996); Mao et al., Analytical Biochemistry 373: 1-8, 2008.
(§3) The assay described above was run against genotype 1b at a concentration of 0.2 nM, against A156T mutant strains at a concentration of 0.4 nM, and against genotype 3a at a concentration of 0.025 nM.

HCV genotype 1b replicon = assay: HCV replicon assay, genotype 1b replicon EC50; type: cell-based, Hepatitis C virus; details: Hepatitis C virus, read-out: EC50 [gt-1b]
Summary of the method: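 Readout was replicon RNA copy number, by 32P-probe protection or TaqMan normalized to cellular cyclophilin A RNA, or luciferase activity for luciferase:Neo^r fusion lines. Cells were exposed to serially diluted compound for 24-48 hours without G418, then washed and lysed. EC50 derived from four-parameter fit relative to DMSO.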

[2] = molecular target: HCV NS3/4A protease genotype 1b (Hepatitis C virus genotype 1b, UniProt P26663); assay: HCV NS3/4A protease time-resolved fluorescence (TRF) assay, Ki against genotype 1b; type: biochemical; details: IC50 [gt-1b], NS3/4A protease TRF assay, genotype 1b enzyme 0.2 nM
Summary of the method: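 First, protease (genotype 1b 0.2 nM, A156T 0.4 nM, genotype 3a 0.025 nM) is preincubated 30 min with inhibitor. Next, 25 nM TRF substrate starts the reaction, run 2.5 h at room temperature. Finally, europium fluorescence is read and Ki calculated from IC50.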

[3] = molecular target: HCV NS3/4A protease A156T mutant (Hepatitis C virus genotype 1b, UniProt P26663, A1182T); assay: HCV NS3/4A protease time-resolved fluorescence (TRF) assay, Ki against A156T mutant; type: biochemical; details: read-out: IC50 [gt-1b A156T]
Method: as §1, §2, §3

[4] = NS3/4A protease TRF assay, A156T mutant enzyme 0.4 nM, K+ salt
[5] = NS3/4A gt-1b A156T mutant, enzyme 0.4 nM
[6] = NS3/4A protease TRF assay, A156T mutant enzyme 0.4 nM

SMILES	pIC50 [1]	pIC50 [2]	pIC50 [3, 6]	also measured
CCc1nc2ccc(OCCN3CCOCC3)cc2c2c1O[C@]1(CC2)C[C@H]2C(=O)N[C@]3(C(=O)NS(=O)(=O)C4(C)CC4)C[C@H]3/C=C\CCCCC[C@H](NC(=O)OCC(C)C)C(=O)N2C1 [Example 515, 2-methylpropyl {(2R,6S,12Z,13aS,14aR,16aS)-5′-ethyl-14a-{[(1-methylcyclopropyl)sulfonyl]carbamoyl}-9′-[2-(morpholin-4-yl)ethoxy]-5,16-dioxo-1,1′,2′,5,6,7,8,9,10,11,13a,14,14a,15,16,16a-hexadecahydrospiro[cyclopropa[e]pyrrolo[1,2-a][1,4]diazacyclopentadecine-2,3′-pyrano[2,3-c]quinolin]-6-yl}carbamate]	9.53			pEC50 (HCV genotype 1b replicon; HCV replicon, genotype 1b, HCl salt): 9.30; pIC50 ([2]; HCl salt): 11.30; pIC50 ([3]; NS3/4A protease TRF assay, A156T mutant enzyme 0.4 nM, HCl salt): 10.24
CCc1nc2ccc(OCCCOC)cc2c2c1O[C@]1(CC2)C[C@H]2C(=O)N[C@]3(C(=O)NS(=O)(=O)C4(C)CC4)C[C@H]3/C=C\CCCCC[C@H](NC(=O)OCC(C)(C)C)C(=O)N2C1 [Example 488, 2,2-dimethylpropyl [(2R,6S,12Z,13aS,14aR,16aS)-5′-ethyl-9′-(3-methoxypropoxy)-14a-{[(1-methylcyclopropyl)sulfonyl]carbamoyl}-5,16-dioxo-1,1′,2′,5,6,7,8,9,10,11,13a,14,14a,15,16,16a-hexadecahydrospiro[cyclopropa[e]pyrrolo[1,2-a][1,4]diazacyclopentadecine-2,3′-pyrano[2,3-c]quinolin]-6-yl]carbamate]	9.31			pEC50 (HCV genotype 1b replicon; HCV replicon, genotype 1b, K+ salt): 9.38; pIC50 ([2]; K+ salt): 11.40; pIC50 [3, 4]: 9.87
Cc1nc2ccccc2c2c1O[C@@]1(CC2)C[C@H]2C(=O)N[C@]3(C(=O)NS(=O)(=O)C4(C)CC4)C[C@H]3/C=C\CCCCC[C@H](NC(=O)NC(C)(C)C)C(=O)N2C1 [Example 78, (2S,6S,12Z,13aS,14aR,16aS)-6-[(tert-butylcarbamoyl)amino]-5′-methyl-N-[(1-methylcyclopropyl)sulfonyl]-5,16-dioxo-1,1′,2′,6,7,8,9,10,11,13a,14,15,16,16a-tetradecahydrospiro[cyclopropa[e]pyrrolo[1,2-a][1,4]diazacyclopentadecine-2,3′-pyrano[2,3-c]quinoline]-14a(5H)-carboxamide]				pEC50 (HCV genotype 1b replicon; genotype 1b replicon): 7.07; pIC50 [3, 5]: 8.51
Cc1nc2ccccc2c2c1O[C@]1(CC2)C[C@H]2C(=O)N[C@]3(C(=O)NS(=O)(=O)C4(C)CC4)C[C@H]3/C=C\CCCCC[C@H](NC(=O)OC3(C)CC3)C(=O)N2C1 [Example 79, 1-methylcyclopropyl [(2R,6S,12Z,13aS,14aR,16aS)-5′-methyl-14a-{[(1-methylcyclopropyl)sulfonyl]carbamoyl}-5,16-dioxo-1,1′,2′,5,6,7,8,9,10,11,13a,14,14a,15,16,16a-hexadecahydrospiro[cyclopropa[e]pyrrolo[1,2-a][1,4]diazacyclopentadecine-2,3′-pyrano[2,3-c]quinolin]-6-yl]carbamate]				pEC50 (HCV genotype 1b replicon; genotype 1b replicon): 8.77; pIC50 [3, 5]: 9.82
COCCCOc1ccc2nc(C(F)(F)F)c3c(c2c1)CC[C@]1(C[C@H]2C(=O)N[C@]4(C(=O)NS(=O)(=O)C5(C)CC5)C[C@H]4/C=C\CCCCC[C@H](NC(=O)OC4(C)CCC4)C(=O)N2C1)O3 [Example 522, 1-methylcyclobutyl [(2R,6S,12Z,13aS,14aR,16aS)-9′-(3-methoxypropoxy)-14a-{[(1-methylcyclopropyl)sulfonyl]carbamoyl}-5,16-dioxo-5′-(trifluoromethyl)-1,1′,2′,5,6,7,8,9,10,11,13a,14,14a,15,16,16a-hexadecahydrospiro[cyclopropa[e]pyrrolo[1,2-a][1,4]diazacyclopentadecine-2,3′-pyrano[2,3-c]quinolin]-6-yl]carbamate]	9.51			pIC50 ([2]; K+ salt): 11.30; pIC50 [3, 4]: 9.55
COc1ccc2nc(C(F)F)c3c(c2n1)CC[C@]1(C[C@H]2C(=O)N[C@]4(C(=O)NS(=O)(=O)C5(C)CC5)C[C@H]4/C=C\CCCCC[C@H](NC(=O)O[C@@H]4C[C@@H]5C[C@@H]5C4)C(=O)N2C1)O3 [Example 524, (1R,3r,5S)-bicyclo[3.1.0]hex-3-yl [(2R,6S,12Z,13aS,14aR,16aS)-6′-(difluoromethyl)-2′-methoxy-14a-{[(1-methylcyclopropyl)sulfonyl]carbamoyl}-5,16-dioxo-1,5,6,7,8,9,9′,10,10′,11,13a,14,14a,15,16,16a-hexadecahydrospiro[cyclopropa[e]pyrrolo[1,2-a][1,4]diazacyclopentadecine-2,8′-pyrano[2,3-c][1,5]naphthyridin]-6-yl]carbamate]	9.96	11.52	9.74	
COc1ccc2nc(C(F)(F)F)c3c(c2c1)[C@](C)(O)C[C@]1(C[C@H]2C(=O)N[C@]4(C(=O)NS(=O)(=O)C5(C)CC5)C[C@H]4/C=C\CCCCC[C@H](NC(=O)OC4(C)CCC4)C(=O)N2C1)O3 [Example 507, 1-methylcyclobutyl [(1′R,2S,6S,12Z,13aS,14aR,16aS)-1′-hydroxy-9′-methoxy-1′-methyl-14a-{[(1-methylcyclopropyl)sulfonyl]carbamoyl}-5,16-dioxo-5′-(trifluoromethyl)-1,1′,2′,5,6,7,8,9,10,11,13a,14,14a,15,16,16a-hexadecahydrospiro[cyclopropa[e]pyrrolo[1,2-a][1,4]diazacyclopentadecine-2,3′-pyrano[2,3-c]quinolin]-6-yl]carbamate]	8.35	10.60	8.63	
C=C[C@@H]1C[C@]1(NC(=O)[C@@H]1C[C@]23CCc4c(c(nc5ccc(OC)cc45)CCCCC[C@@H]4C[C@H]4OC(=O)N[C@@H](C(C)(C)C)C(=O)N1C2)O3)C(=O)NS(=O)(=O)C1(C)CC1 [Example 527]	9.17	10.59		
COc1cc(Cl)c2nc(C(F)(F)F)c3c(c2c1)CC[C@]1(C[C@H]2C(=O)N[C@]4(C(=O)NS(=O)(=O)C5(C)CC5)C[C@H]4/C=C\CCCCC[C@H](NC(=O)OCC(C)C)C(=O)N2C1)O3 [Example 399, 2-methylpropyl [(2R,6S,12Z,13aS,14aR,16aS)-7′-chloro-9′-methoxy-14a-{[(1-methylcyclopropyl)sulfonyl]carbamoyl}-5,16-dioxo-5′-(trifluoromethyl)-1,1′,2′,5,6,7,8,9,10,11,13a,14,14a,15,16,16a-hexadecahydrospiro[cyclopropa[e]pyrrolo[1,2-a][1,4]diazacyclopentadecine-2,3′-pyrano[2,3-c]quinolin]-6-yl]carbamate]	8.19	10.57	8.84	
COc1cc(Cl)c2nc(C(F)(F)F)c3c(c2c1)CC[C@]1(C[C@H]2C(=O)N[C@]4(C(=O)NS(=O)(=O)C5(C)CC5)C[C@H]4/C=C\CCCCC[C@H](NC(=O)OC(C)(C)C)C(=O)N2C1)O3 [Example 398, tert-butyl [(2R,6S,12Z,13aS,14aR,16aS)-7′-chloro-9′-methoxy-14a-{[(1-methylcyclopropyl)sulfonyl]carbamoyl}-5,16-dioxo-5′-(trifluoromethyl)-1,1′,2′,5,6,7,8,9,10,11,13a,14,14a,15,16,16a-hexadecahydrospiro[cyclopropa[e]pyrrolo[1,2-a][1,4]diazacyclopentadecine-2,3′-pyrano[2,3-c]quinolin]-6-yl]carbamate]	8.63	10.60	9.30	
